Experiment [1] relates to COLO 205 colorectal tumor cells. The experiment in a line: Tumor cell viability inhibition assay (CellTiter-Glo 2.0, 72 hours). Type of experiment: cell-based. The conditions noted are these: COLO 205 cell viability. In short, it runs like this: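 IC50 derived by 4-parameter fitting after normalizing luminescence to DMSO and max-inhibition wells. Compounds tested as 11 concentrations in 4-fold steps on COLO 205 cells seeded at 1500 per well in RPMI-1640/10% FBS; ATP content measured with CellTiter-Glo 2.0 after 72 h.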
For orientation: In ATP-based viability assays light output follows the ATP content of the culture.

In experiment [2] the target is T1, human eIF4E protein (Homo sapiens, UniProt P06730).
T1 construct: purchased Novus NBP-45314
T1 sequence (P06730 whole entry): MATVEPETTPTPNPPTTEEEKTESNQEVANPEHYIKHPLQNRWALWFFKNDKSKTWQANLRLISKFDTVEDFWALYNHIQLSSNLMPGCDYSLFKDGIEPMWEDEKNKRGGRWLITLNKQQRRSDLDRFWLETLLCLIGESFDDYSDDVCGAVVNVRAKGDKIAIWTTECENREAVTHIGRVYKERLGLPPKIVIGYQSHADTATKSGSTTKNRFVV
The experiment in a line: Biochemical competitive binding assay (TR-FRET competition, EDA-m7GDP-ATTO-647N probe). The conditions noted are these: read-out: hEIF4E TR-FRET IC50. In short, it runs like this:
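IC50 values come from 4-parameter fits of the normalized 665/620 nm TR-FRET ratio. Compound was first incubated 15 min with 4 nM recombinant His-eIF4E bound to 2.5 nM Eu-anti-His antibody, then 15 min with 5 nM m7GDP-ATTO-647N tracer, in pH 7.5 HEPES buffer with 100 mM KCl, Tween-20 and BSA.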
A general note: In TR-FRET formats the signal depends on donor and acceptor labels being close together.

For experiment [3], the system named is cap-dependent translation in Flp-In-293 reporter cells. The experiment in a line: Cellular cap-dependent translation inhibition assay (dual luciferase assay, DLA; Fluc/Rluc ratio, 24 hours). In kind it is cell-based. The conditions noted are these: dual luciferase assay, Flp-In-293 reporter cells, 24 hours, Fluc/Rluc ratio, read-out: DLA 205 IC50.

Read-outs that look alike come from different tables or passages of the source.

Broadly, the IC50 is the concentration that gives 50% inhibition. As to `Cc1cc(-c2cc(Cl)ccc2OCCn2c(C)nc3c(c2=O)CC(N(C2CC2)C2CC2)CC3)c2scc(C(=O)NS(C)(=O)=O)c2n1` (single isomer, unassigned) [Compound 291], the IC50 in experiment [1] (Homo sapiens, COLO 205, 72 h) is < 5 µM; in experiment [2], < 0.1 µM; in experiment [3] (Homo sapiens, Flp-In-293, 24 h), < 1 µM.

On to `Cc1cc(-c2cc(Cl)ccc2OCCn2c(C)nc3c(c2=O)CC(N(C2CC2)C2CC2)CC3)c2scc(C(=O)NS(C)(=O)=O)c2n1` (single isomer, unassigned) [Compound 292], for which the 50% inhibitory concentration (IC50) is 5 to 20 µM in experiment [1], < 0.1 µM in experiment [2] and 1 to 5 µM in experiment [3].

With `Cc1nc2c(c(=O)n1CC#Cc1ccc(Cl)cc1-c1ccnc3c(C(=O)O)csc13)C[C@@H](N1CC[C@H](F)C1)CC2` (single isomer, unassigned) [Compound 293], the IC50 in experiment [1] (Homo sapiens, COLO 205, 72 h) was < 5 µM; in experiment [2] it was < 0.1 µM; in experiment [3] (Homo sapiens, Flp-In-293, 24 h), < 1 µM.

As for `Cc1nc2c(c(=O)n1CC#Cc1ccc(Cl)cc1-c1ccnc3c(C(=O)O)csc13)C[C@H](N1CC[C@H](F)C1)CC2` (single isomer, unassigned) [Compound 294], the concentration for half-maximal inhibition (IC50) in experiment [1] (Homo sapiens, COLO 205, 72 h) was < 5 µM; in experiment [2] it was < 0.1 µM; in experiment [3] (Homo sapiens, Flp-In-293, 24 h), < 1 µM.

For the compound `Cc1nc2c(c(=O)n1CC#Cc1ccc(Cl)cc1-c1ccnc3c(C(=O)NS(C)(=O)=O)csc13)CC(N(C)Cc1ccncc1)CC2` (single isomer, unassigned) [Compound 295], the IC50 in experiment [1] (Homo sapiens, COLO 205, 72 h) is < 5 µM; in experiment [2], < 0.1 µM; in experiment [3] (Homo sapiens, Flp-In-293, 24 h) it was < 1 µM.

As to `Cc1nc2c(c(=O)n1CC#Cc1ccc(Cl)cc1-c1ccnc3c(C(=O)O)csc13)CC(N(C)C)CC2` (single isomer, unassigned) [Compound 296], the concentration for half-maximal inhibition (IC50) in experiment [1] (Homo sapiens, COLO 205, 72 h) is > 20 µM; in experiment [2], 0.5 to 5 µM; in experiment [3] (Homo sapiens, Flp-In-293, 24 h) it was > 5 µM.

On to `Cc1nc2c(c(=O)n1CC#Cc1ccc(Cl)cc1-c1ccnc3c(C(=O)O)csc13)CC(N(C)C)CC2` (single isomer, unassigned) [Compound 297], for which the concentration for half-maximal inhibition (IC50) is > 20 µM in experiment [1], 0.5 to 5 µM in experiment [2] and > 5 µM in experiment [3].

For `Cc1nc2c(c(=O)n1CC#Cc1ccc(Cl)cc1-c1ccnc3c(C(=O)O)csc13)CC(N1CCCCC1)CC2` (single isomer, unassigned) [Compound 298], the IC50 is < 5 µM in experiment [1] (Homo sapiens, COLO 205, 72 h); < 0.1 µM in experiment [2]; < 1 µM in experiment [3] (Homo sapiens, Flp-In-293, 24 h).

Consider `Cc1nc2c(c(=O)n1CC#Cc1ccc(Cl)cc1-c1ccnc3c(C(=O)O)csc13)CC(N1CCCCC1)CC2` (single isomer, unassigned) [Compound 299], for which the IC50 is 5 to 20 µM in experiment [1], < 0.1 µM in experiment [2] and 1 to 5 µM in experiment [3].

For the compound `Cc1cc(-c2cc(Cl)ccc2OCCn2c(C)nc3c(c2=O)CC(N(C)C2CCCC2(F)F)CC3)c2scc(C(=O)O)c2n1` (single isomer, unassigned) [Compound 300], the IC50 in experiment [1] (Homo sapiens, COLO 205, 72 h) was < 5 µM; in experiment [2], < 0.1 µM; in experiment [3] (Homo sapiens, Flp-In-293, 24 h), < 1 µM.

As for `Cc1cc(-c2cc(Cl)ccc2OCCn2c(C)nc3c(c2=O)CC(N(C)C2CCCC2(F)F)CC3)c2scc(C(=O)O)c2n1` (single isomer, unassigned) [Compound 301], the IC50 is 5 to 20 µM in experiment [1], < 0.1 µM in experiment [2] and < 1 µM in experiment [3].

As for `Cc1cc(-c2cc(Cl)ccc2OCCn2c(C)nc3c(c2=O)CC(N(C)C2CC2)CC3)c2scc(C(=O)NS(C)(=O)=O)c2n1` (single isomer, unassigned) [Compound 302], the 50% inhibitory concentration (IC50) was < 5 µM in experiment [1] (Homo sapiens, COLO 205, 72 h); < 0.1 µM in experiment [2]; < 1 µM in experiment [3] (Homo sapiens, Flp-In-293, 24 h).

As to `Cc1cc(-c2cc(Cl)ccc2OCCn2c(C)nc3c(c2=O)CC(N(C)C2CC2)CC3)c2scc(C(=O)NS(C)(=O)=O)c2n1` (single isomer, unassigned) [Compound 303], the half-inhibitory concentration (IC50) in experiment [1] is < 5 µM; in experiment [2], < 0.1 µM; in experiment [3] it was < 1 µM.

For `Cc1cc(-c2cc(Cl)ccc2OCCn2c(C)nc3c(c2=O)CC(N(C)CC2(C)COC2)CC3)c2scc(C(=O)NS(C)(=O)=O)c2n1` (single isomer, unassigned) [Compound 304], the half-maximal inhibitory concentration (IC50) in experiment [1] (Homo sapiens, COLO 205, 72 h) is 5 to 20 µM; in experiment [2], < 0.1 µM; in experiment [3] (Homo sapiens, Flp-In-293, 24 h), < 1 µM.

As to `Cc1cc(-c2cc(Cl)ccc2OCCn2c(C)nc3c(c2=O)CC(N(C)CC2(C)COC2)CC3)c2scc(C(=O)NS(C)(=O)=O)c2n1` (single isomer, unassigned) [Compound 305], the IC50 is < 5 µM in experiment [1], < 0.1 µM in experiment [2] and < 1 µM in experiment [3].

For the compound `Cc1cc(-c2cc(Cl)ccc2OCCn2c(C)nc3c(c2=O)CC(N(C)C2CC2)CC3)c2sccc2n1` (single isomer, unassigned) [Compound 306], the IC50 is 5 to 20 µM in experiment [1] (Homo sapiens, COLO 205, 72 h); 0.5 to 5 µM in experiment [2]; > 5 µM in experiment [3].

Turning to `Cc1cc(-c2cc(Cl)ccc2OCCn2c(C)nc3c(c2=O)CC(N(C)C2CC2)CC3)c2sccc2n1` (single isomer, unassigned) [Compound 307], the values for the IC50 in experiment [1], in experiment [2] and in experiment [3] were 5 to 20 µM, 0.1 to 0.5 µM and 1 to 5 µM, respectively.

In the case of `Cc1cc(-c2cc(Cl)ccc2OCCn2c(C)nc3c(c2=O)CC(N(CC(F)(F)F)C2CC2)CC3)c2scc(C(=O)NS(C)(=O)=O)c2n1` (single isomer, unassigned) [Compound 308], the IC50 in experiment [1] (Homo sapiens, COLO 205, 72 h) was in the range of 5 to 20 µM; in experiment [2], 0.1 to 0.5 µM; in experiment [3] (Homo sapiens, Flp-In-293, 24 h) it was 1 to 5 µM.

`Cc1cc(-c2cc(Cl)ccc2OCCn2c(C)nc3c(c2=O)CC(N(CC(F)(F)F)C2CC2)CC3)c2scc(C(=O)NS(C)(=O)=O)c2n1` (single isomer, unassigned) [Compound 309]: the IC50 is 5 to 20 µM in experiment [1], 0.1 to 0.5 µM in experiment [2] and 1 to 5 µM in experiment [3].

As to `Cc1cc(-c2cc(Cl)ccc2OCCn2c(C)nc3c(c2=O)C[C@@H](N2CC[C@H](F)C2)CC3)c2scc(C(=O)O)c2n1` (single isomer, unassigned) [Compound 310], the IC50 in experiment [1] (Homo sapiens, COLO 205, 72 h) was < 5 µM; in experiment [2] it was < 0.1 µM; in experiment [3] (Homo sapiens, Flp-In-293, 24 h) it was < 1 µM.

Take `Cc1cc(-c2cc(Cl)ccc2OCCn2c(C)nc3c(c2=O)C[C@H](N2CC[C@H](F)C2)CC3)c2scc(C(=O)O)c2n1` (single isomer, unassigned) [Compound 311]: the half-inhibitory concentration (IC50) in experiment [1] (Homo sapiens, COLO 205, 72 h) is < 5 µM; in experiment [2], < 0.1 µM; in experiment [3] (Homo sapiens, Flp-In-293, 24 h) it was < 1 µM.

Regarding `Cc1cc(-c2cc(Cl)ccc2OCCn2c(C)nc3c(c2=O)C[C@@H](N2CC[C@@H](F)C2)CC3)c2scc(C(=O)NS(C)(=O)=O)c2n1` (single isomer, unassigned) [Compound 312], the IC50 in experiment [1] (Homo sapiens, COLO 205, 72 h) is < 5 µM; in experiment [2], < 0.1 µM; in experiment [3] (Homo sapiens, Flp-In-293, 24 h) it was < 1 µM.

For `Cc1cc(-c2cc(Cl)ccc2OCCn2c(C)nc3c(c2=O)C[C@H](N2CC[C@@H](F)C2)CC3)c2scc(C(=O)NS(C)(=O)=O)c2n1` (single isomer, unassigned) [Compound 313], the IC50 in experiment [1] (Homo sapiens, COLO 205, 72 h) was < 5 µM; in experiment [2], < 0.1 µM; in experiment [3] (Homo sapiens, Flp-In-293, 24 h), < 1 µM.

As for `Cc1nc2c(c(=O)n1CC#Cc1ccc(Cl)cc1-c1ccnc3c(C(=O)NS(C)(=O)=O)csc13)CC(N(C)Cc1ccncc1)CC2` (single isomer, unassigned) [Compound 314], the 50% inhibitory concentration (IC50) in experiment [1] is 5 to 20 µM; in experiment [2], < 0.1 µM; in experiment [3], 1 to 5 µM.

Turning to `Cc1nc2c(c(=O)n1CC#Cc1ccc(Cl)cc1-c1ccnc3c(C(=O)NS(C)(=O)=O)csc13)CC(N1CCCCC1)CC2` (single isomer, unassigned) [Compound 315], the IC50 in experiment [1] (Homo sapiens, COLO 205, 72 h) is < 5 µM; in experiment [2], < 0.1 µM; in experiment [3] (Homo sapiens, Flp-In-293, 24 h), < 1 µM.

`Cc1nc2c(c(=O)n1CC#Cc1ccc(Cl)cc1-c1ccnc3c(C(=O)NS(C)(=O)=O)csc13)CC(N1CCCCC1)CC2` (single isomer, unassigned) [Compound 316]: the IC50 is 5 to 20 µM in experiment [1], < 0.1 µM in experiment [2] and 1 to 5 µM in experiment [3].

Regarding `Cc1cc(-c2cc(Cl)ccc2OCCn2c(C)nc3c(c2=O)CC(N(CC(F)(F)F)C2CC2)CC3)c2scc(C(=O)O)c2n1` (single isomer, unassigned) [Compound 319], the IC50 in experiment [1] (Homo sapiens, COLO 205, 72 h) is 5 to 20 µM; in experiment [2], 0.1 to 0.5 µM; in experiment [3] (Homo sapiens, Flp-In-293, 24 h) it was 1 to 5 µM.

Consider `Cc1cc(-c2cc(Cl)ccc2OCCn2c(C)nc3c(c2=O)CC(N(CC(F)(F)F)C2CC2)CC3)c2scc(C(=O)O)c2n1` (single isomer, unassigned) [Compound 320], for which the IC50 in experiment [1] is 5 to 20 µM; in experiment [2] it was 0.1 to 0.5 µM; in experiment [3] it was 1 to 5 µM.

As to `Cc1cc(-c2cc(Cl)ccc2OCCn2c(C)nc3c(c2=O)CC(N2CC(C(F)(F)F)C2)CC3)c2scc(C(=O)NS(C)(=O)=O)c2n1` (single isomer, unassigned) [Compound 321], the concentration for half-maximal inhibition (IC50) in experiment [1] (Homo sapiens, COLO 205, 72 h) was < 5 µM; in experiment [2], < 0.1 µM; in experiment [3] (Homo sapiens, Flp-In-293, 24 h) it was < 1 µM.

On to `Cc1cc(-c2cc(Cl)ccc2OCCn2c(C)nc3c(c2=O)CC(N2CC(C(F)(F)F)C2)CC3)c2scc(C(=O)NS(C)(=O)=O)c2n1` (single isomer, unassigned) [Compound 322], for which the half-inhibitory concentration (IC50) in experiment [1] is < 5 µM; in experiment [2] it was < 0.1 µM; in experiment [3] it was < 1 µM.

On to `Cc1cc(-c2cc(Cl)ccc2OCCn2c(C)nc3c(c2=O)C[C@H](N2CCC[C@@H](F)C2)CC3)c2scc(C(=O)O)c2n1` (single isomer, unassigned) [Compound 323], for which the half-inhibitory concentration (IC50) in experiment [1] (Homo sapiens, COLO 205, 72 h) was < 5 µM; in experiment [2] it was < 0.1 µM; in experiment [3] (Homo sapiens, Flp-In-293, 24 h), < 1 µM.

Values taken from US20240246918A1, “COMPOUNDS AND COMPOSITIONS AS EIF4E INHIBITORS AND THE USES THEREOF” (Ribometrix, Inc., priority 2022, published 2024).
